Laboratory results as given in patent publication US11730817B2, “Pro-cyclic dinucleotides and pro-cyclic dinucleotide conjugates for cytokine induction” (INVIVOGEN, priority 2017, dated 2023).

Key:
[1] = biological target: STING (Homo sapiens, UniProt Q86WV6, G230A/H232R/R293Q/R71H); test: ISG54 (IRF pathway) reporter assay in THP1-Dual cells
[2] = system: Type I IFNs; test: Whole-blood assay, type I IFN induction (HEK-Blue IFN-α/β-KO-STING readout); format: cell-based, human; conditions: relative to CL656 at 1 μM
[3] = system: STING; test: ISG activity of protein:CDN and antigen:CDN conjugates in reporter cell lines; format: cell-based
Source text: In the present invention, we evaluated using reporter cell lines the ISG activity of protein:CDN conjugates using in vitro conditions favorable to the release of both components.

[4] = system: Type I IFNs; test: Whole-blood assay, type I IFN induction (HEK-Blue IFN-α/β-KO-STING readout); format: cell-based, human; conditions: whole blood assay, type I IFN; read-out: EC50 (μM) IFN in WBA
Source text: Type I IFNs: HEK-Blue™ IFN-α/β-KO-STING: These cells, in which the STING gene has been inactivated, are derived from HEK293 cell line known as HEK-Blue™ IFN-α/β (InvivoGen catalog code: hkb-ifnab). HEK-Blue™ IFN-α/β cells enable detection of bioactive human type I IFNs through monitoring of activation of the […]. These cells were generated by stable transfection of HEK293 cells with the human STAT2 and IRF9 genes to obtain a fully active Type-I IFN signaling pathway. The other genes of the pathway (IFNAR1, IFNAR2, JAK1, TyK2 and STAT1) are naturally expressed in sufficient amounts. The cells were further transfected with a SEAP reporter gene under control of an IFNα/β-inducible ISG54 promoter. This promoter comprises five IFN-stimulated response elements (ISREs) fused to a minimal promoter of the human ISG54 gene, which is unresponsive to activators of the NF-κB or AP-1 pathways. Stimulation of HEK-Blue™ IFN-α/β cells with human IFN-α or IFN-β activates the JAK/STAT/ISGF3 pathway and subsequently induces production of SEAP. Production of type I IFNs in these cells is measured using QUANTI-Blue™.
Briefly, the samples were collected by venipuncture into sodium heparin tubes at the time of donation. The samples were analyzed for rhesus (Rh), blood group, hematocrit and serological status (AgHBS, HIV, HCV, HTLV, HBC, CMV, Syph). The tubes were picked up on the day of collection and subsequently tested (blood analysis, and treatment with test items) on the same day.
Each blood sample was diluted (1:2 [v/v]) in RPMI medium and aliquoted into 96-well plates (180-μL wells) containing either CDN (√10-fold serial dilution starting from 50 μM). The plates were incubated at 37° C. in a 5% CO2 incubator for 18 hours. Then, the supernatants were collected, transferred into the corresponding wells of round-bottom 96-well plates, and either stored at −80° C., or immediately tested in the appropriate reporter cell line.
A new 96-wells plate was prepared for each reporter cell lines tested, as follows: 10 μL of supernatant from the previous plate were added to the corresponding well in the new reporter cell plate. Then, a 190-μL aliquot of cells of the desired reporter cell line, previously harvested in medium containing heat-inactivated serum and counted, was added to each well (approximately 50,000 cells/well), and the plate was incubated for approximately 20 hours. The desired cytokine induction activity was determined using the QUANTI-Blue™ assay, as previously described. Briefly, 20 μL of supernatant from the previously incubated plate was transferred to the corresponding well of a new 96-well plate in which 180 μL of QUANTI-Blue™ reagent had previously been added.

[5] = Lipid-based nanoparticle formation (PdI, Z Ave); format: physicochemical; conditions: for Z Ave (nm): lipid BAM-CDN particles; for PdI: polydispersity index of lipid BAM-CDN
[6] = biological target: T1, STING (Mus musculus, UniProt Q3TBT3); test: ISG reporter assay in RAW-Lucia ISG cells
T1 sequence (Q3TBT3 1-378): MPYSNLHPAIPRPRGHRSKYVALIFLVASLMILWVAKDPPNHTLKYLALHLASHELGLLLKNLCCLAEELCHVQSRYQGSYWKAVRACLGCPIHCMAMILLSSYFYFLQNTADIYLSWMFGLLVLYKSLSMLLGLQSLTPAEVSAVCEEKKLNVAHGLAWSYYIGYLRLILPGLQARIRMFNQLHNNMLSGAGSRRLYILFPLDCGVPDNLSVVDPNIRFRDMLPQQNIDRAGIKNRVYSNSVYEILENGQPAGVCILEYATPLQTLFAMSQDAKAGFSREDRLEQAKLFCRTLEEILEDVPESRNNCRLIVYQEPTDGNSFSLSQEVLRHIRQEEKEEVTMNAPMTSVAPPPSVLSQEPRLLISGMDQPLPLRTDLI

[7] = biological target: PDL1 (Homo sapiens, UniProt Q9NZQ7); test: Antigen binding ELISA of anti-PDL1mAb:CDN conjugate; conditions: relative to anti PDL1 at 10 μg/mL
Source text: We performed Whole Blood Assay on healthy human donors to evaluate the ability of the anti-PDL1mAb:CDN conjugate (Compound 47) to induce type I interferons as described previously in Example 2.2. The binding properties of the anti-PDL1mAb:CDN conjugate have been evaluated using ELISA.

Sequence of STING (Homo sapiens, UniProt Q86WV6, G230A/H232R/R293Q/R71H) (Q86WV6 whole entry R71H/G230A/H232R/R293Q): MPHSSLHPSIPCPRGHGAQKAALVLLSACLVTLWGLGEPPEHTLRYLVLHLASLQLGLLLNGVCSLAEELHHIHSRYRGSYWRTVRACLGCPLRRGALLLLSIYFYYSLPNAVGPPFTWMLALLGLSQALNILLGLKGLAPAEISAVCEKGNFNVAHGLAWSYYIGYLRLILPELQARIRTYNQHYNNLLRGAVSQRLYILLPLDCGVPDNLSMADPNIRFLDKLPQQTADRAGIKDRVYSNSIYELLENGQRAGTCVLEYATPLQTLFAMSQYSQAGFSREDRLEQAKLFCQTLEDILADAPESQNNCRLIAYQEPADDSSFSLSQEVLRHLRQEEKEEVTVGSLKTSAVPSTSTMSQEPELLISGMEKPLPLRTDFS
Sequence of PDL1 (Q9NZQ7 19-290, species assumed): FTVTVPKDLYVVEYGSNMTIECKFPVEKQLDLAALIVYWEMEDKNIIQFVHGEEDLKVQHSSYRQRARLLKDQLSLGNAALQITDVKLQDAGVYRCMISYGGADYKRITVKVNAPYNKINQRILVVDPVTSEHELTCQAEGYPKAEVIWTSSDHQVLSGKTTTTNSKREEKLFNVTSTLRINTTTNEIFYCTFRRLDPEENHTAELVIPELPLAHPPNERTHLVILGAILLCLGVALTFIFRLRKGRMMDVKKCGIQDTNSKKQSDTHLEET

Molecule | EC50 [1] [nM] | Fold ISG induction vs unstimulated @10 μM ([1]; 10 μM, THP1-Dual cells) [fold] | IFN activity @ 50 μg/mL in WBA (% of CL656 @ 1 μM) [2] [%] | ISG activity @ 50 μg/mL (% of CL656 @ 1 μM) ([3]; antigen:CDN conjugates) [%] | ISG activity @ 50 μg/mL (% of parental CND @ 1 μM) ([3]; in vitro conditions favorable to release of both components) [%] | ISG activity compared with unmodified parental CDN ([1]; THP1-Dual cells) | EC50 [4] [µM] | Z Ave (nm) [5] [nm] | PdI [5] | ISG activity compared with unmodified parental CDN [6] | Antigen binding (% of anti PDL1 @ 10 μg/mL) [7] [%]
Nc1ncnc2c1ncn2[C@@H]1O[C@@H]2COP(=O)(S)O[C@H]3[C@@H](F)[C@H](n4cnc5c(=O)[nH]cnc54)O[C@@H]3COP(=O)(S)O[C@H]2[C@H]1F (some centres unmarked) [CL656, 3′3′-cAIM(PS)2 Difluor (Rp/Sp)] | 1000 | 215 | 100 | 100 | 100 |  |  |  |  |  | 
CCCCCCCCCCCCCCCC(=O)N[C@H](C(=O)N[C@@H](CCCNC(N)=O)C(=O)Nc1ccc(CSP2(=O)OC[C@H]3O[C@@H](n4cnc5c(N)ncnc54)[C@H](F)[C@@H]3OP(=O)(O)OC[C@H]3O[C@@H](n4cnc5c(O)ncnc54)C[C@@H]3O2)cc1)C(C)C (some centres unmarked) [CL848] |  |  |  |  |  | higher ISG activity than the unmodified parental CDN | 0.11 | 84.3 | 0.18 | higher ISG activity than the unmodified parental CDN | 
CCCCCCCCCCCCCCCC(=O)N[C@H](C(=O)N[C@@H](C)C(=O)Nc1ccc(CSP2(=O)OC[C@H]3O[C@@H](n4cnc5c(N)ncnc54)[C@H](F)[C@@H]3OP(=O)(O)OC[C@H]3O[C@@H](n4cnc5c(O)ncnc54)[C@H](F)[C@@H]3O2)cc1)C(C)C (some centres unmarked) [CL849] |  |  |  |  |  | higher ISG activity than the unmodified parental CDN |  | 152.4 | 0.56 | higher ISG activity than the unmodified parental CDN | 
CCCCCCCCCCCCCCCC(=O)N[C@H](C(=O)N[C@@H](CCCNC(N)=O)C(=O)Nc1ccc(CSP2(=O)OC[C@H]3O[C@@H](n4cnc5c(N)ncnc54)[C@H](F)[C@@H]3OP(=O)(S)OC[C@H]3O[C@@H](n4cnc5c(O)ncnc54)[C@H](F)[C@@H]3O2)cc1)C(C)C (some centres unmarked) [CL853] |  |  |  |  |  | higher ISG activity than the unmodified parental CDN | 0.14 | 155.9 | 0.188 | higher ISG activity than the unmodified parental CDN | 
CCCCCCCCCCCCCCCC(=O)N[C@H](C(=O)N[C@@H](C)C(=O)Nc1ccc(CSP2(=O)OC[C@H]3O[C@@H](n4cnc5c(N)ncnc54)[C@H](F)[C@@H]3OP(=O)(S)OC[C@H]3O[C@@H](n4cnc5c(O)ncnc54)[C@H](F)[C@@H]3O2)cc1)C(C)C (some centres unmarked) [CL863] |  |  |  |  |  | higher ISG activity than the unmodified parental CDN | 0.15 | 106.6 | 0.416 | higher ISG activity than the unmodified parental CDN | 
Atezolizumab |  |  | 0 |  |  |  |  |  |  |  | 100
